Converted amounts (≈) assume the structure as drawn.
Columns and labels:
[1] = test system: clinical isolates carrying AAC(3)-IV; assay: MIC broth microdilution, AAC(3)-IV; format: cell-based; conditions: clinical isolates, IMM Univ. Zurich; AAC(3)-IV; read-out: MIC AAC(3)-IV
In short: (§1)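 MICs obtained by broth microdilution following CLSI M07-A10, tested against clinical isolates from the Institute of Medical Microbiology, Univ. Zurich; values in μg/ml.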

[2] = test system: clinical isolates carrying APH(3′)-I; assay: MIC broth microdilution, APH(3′)-I; format: cell-based; conditions: IMM Univ. Zurich
[3] = test system: clinical isolates carrying APH(3′)-II; assay: MIC broth microdilution, APH(3′)-II; format: cell-based; conditions: clinical isolates, IMM Univ. Zurich; APH(3′)-II; read-out: MIC APH(3′)-II
[4] = test system: clinical isolates carrying APH(3′)-III; assay: MIC broth microdilution, APH(3′)-III; format: cell-based; conditions: IMM Univ. Zurich
[5] = test system: clinical isolates carrying APH(3′)-VI; assay: MIC broth microdilution, APH(3′)-VI; format: cell-based; conditions: IMM Univ. Zurich
bacterial ribosomes = assay: in-vitro translation assay, bacterial ribosomes; format: biochemical
In short: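 Cell-free translation; IC50 read-out. Mito = human chimeric ribosomes; cytosolic = rabbit reticulocyte ribosomes; bacterial ribosomes run in the same assay format.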

[6] = test system: human mitochondrial ribosomes; assay: in-vitro translation assay, human mitochondrial (human chimeric) ribosomes; format: biochemical
In short: (§2)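 IC50 values come from cell-free in-vitro translation assays run separately with each ribosome type. Human mitochondrial ribosomes were represented by human chimeric ribosomes, and human cytosolic translation by rabbit reticulocyte ribosomes.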

[7] = test system: human cytosolic ribosomes; assay: in-vitro translation assay, human cytosolic ribosomes; format: biochemical
In short: as §2

[8] = test system: AG212, Escherichia coli ATCC25922; assay: MIC reference strain AG212; format: cell-based; conditions: Escherichia coli; reference strain ATCC25922; read-out: MIC AG212 E. coli
In short: (§3)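 Read-out is the minimal inhibitory concentration, obtained through broth microdilution done according to the CLSI method for aerobes.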

[9] = test system: AG215, Klebsiella pneumonia; assay: MIC reference strain AG215; format: cell-based; conditions: Klebsiella pneumoniae, reference strain; read-out: MIC AG215 K. pneumonia
In short: as §3

[10] = test system: AG290, Enterobacter cloacae; assay: MIC reference strain AG290; format: cell-based; conditions: Enterobacter cloacae; reference strain; read-out: MIC AG290 E. cloacae
In short: as §3

[11] = test system: AG220, Pseudomonas aeruginosa ATCC27853; assay: MIC reference strain AG220; format: cell-based; conditions: Pseudomonas aeruginosa, ATCC27853, reference strain ATCC27853; read-out: MIC AG220 P. aeruginosa
In short: as §3

[12] = test system: AG225, Acinetobacter baumannii pittii; assay: MIC reference strain AG225; format: cell-based; conditions: Acinetobacter baumannii, reference strain; read-out: MIC AG225 A. baumannii
In short: as §3

AG001 E. coli WT = assay: Antibacterial activity, clinical isolate AG001; format: cell-based; set-up: unit not given here
In short: (§4)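 Values are minimal inhibitory concentrations, obtained by serial dilution of compound in broth according to CLSI guidance for aerobes.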

AG055 E. coli WT = assay: Antibacterial activity, clinical isolate AG055; format: cell-based; set-up: unit not given here
In short: as §4

AG003 E. coli AAC(3)-II = assay: Antibacterial activity, clinical isolate AG003; format: cell-based
In short: as §4

AG173 E. coli AAC(3)-IV = assay: Antibacterial activity, clinical isolate AG173; format: cell-based
In short: as §4

AG163 E. coli APH(3′)-I = assay: Antibacterial activity, clinical isolate AG163; format: cell-based
In short: as §4

AG038 MRSA = assay: Antibacterial activity, clinical isolate AG038; format: cell-based; set-up: unit not given here
In short: as §4

[13] = test system: AG039 MRSA AAC(6′)-I ANT(4′)-I; assay: Antibacterial activity, clinical isolate AG039; format: cell-based
In short: as §4

[14] = test system: AG042 MRSA AAC(6′)-I ANT(4′)-I APH(2′); assay: Antibacterial activity, clinical isolate AG042; format: cell-based; set-up: unit not given here
In short: as §4

AG031 P. aer. APH(3′)-II = assay: Antibacterial activity, clinical isolate AG031; format: cell-based; set-up: unit not given here
In short: as §4

AG032 P. aer. APH(3′)-II = assay: Antibacterial activity, clinical isolate AG032; format: cell-based; set-up: unit not given here
In short: as §4

[15] = test system: AG033 P. aer. APH(3′)-II AAC(6′)-I; assay: Antibacterial activity, clinical isolate AG033; format: cell-based; set-up: unit not given here
In short: as §4

[16] = test system: Engineered E. coli pH430 WT; assay: Activity, engineered E. coli pH430 WT; format: cell-based; conditions: wild type
In short: (§5)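 MIC values were determined by broth microdilution following the CLSI M07-A10 standard method for aerobically growing bacteria.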

[17] = test system: Engineered E. coli AG103 armA; assay: Activity against G1405-methylated 16S-rRNA, E. coli AG103 armA; format: cell-based
In short: as §5

[18] = test system: Engineered E. coli pH424 armA; assay: Activity against G1405-methylated 16S-rRNA, E. coli pH424 armA; format: cell-based
In short: as §5

[19] = test system: Engineered E. coli pH425 rmtB; assay: Activity against G1405-methylated 16S-rRNA, E. coli pH425 rmtB; format: cell-based
In short: as §5

[20] = test system: Engineered E. coli pH426 rmtC; assay: Activity against G1405-methylated 16S-rRNA, E. coli pH426 rmtC; format: cell-based
In short: as §5

[21] = test system: Engineered E. coli pH427 rmtF; assay: Activity against G1405-methylated 16S-rRNA, E. coli pH427 rmtF; format: cell-based
In short: as §5

[22] = test system: E. coli AG153 AAC(3)-II APH(3′)-II rmtB; assay: Activity against G1405-methylated 16S-rRNA, clinical isolate AG153; format: cell-based
In short: as §5

[23] = test system: K. pneum. AG269 AAC(3)-II AAC(6′)-I rmtB; assay: Activity against G1405-methylated 16S-rRNA, clinical isolate AG269; format: cell-based
In short: as §5

[24] = test system: Enterob. AG302 AAC(3)-II AAC(6′)-I rmtC; assay: Activity against G1405-methylated 16S-rRNA, clinical isolate AG302; format: cell-based
In short: as §5

[25] = test system: A baum. AG227 APH(3′)-I armA; assay: Activity against G1405-methylated 16S-rRNA, clinical isolate AG227; format: cell-based
In short: as §5

[26] = test system: Enterobacteriaceae, Pseudomonas, Acinetobacter, and Mycobacteria; assay: Antibacterial potency, Tables 4+5 overall; format: cell-based; conditions: against Enterobacteriaceae, Mycobacteria (Tables 4+5)
Description: Minimal inhibitory concentrations (MIC) have been determined by broth microdilution assays (CLSI. Methods for Dilution Antimicrobial Susceptibility Tests for Bacteria That Grow Aerobically; Approved Standard—Tenth Edition. CLSI document M07-A10. Wayne, Pa.: Clinical and Laboratory Standards Institute; 2015.).

WT clinical isolates = assay: MIC broth microdilution, WT; format: cell-based; conditions: read-out: MIC WT, clinical isolates, IMM Univ. Zurich; wild type
In short: as §1

isolates carrying apmA = assay: MIC broth microdilution, apmA; format: cell-based; conditions: apmA resistance gene
In short: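 MICs (μg/ml) were determined by CLSI M07-A10 broth microdilution against apmA-carrying clinical isolates from the Institute of Medical Microbiology, University of Zurich.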

ATCC19977 M. abcessus = assay: MIC reference strain ATCC19977; format: cell-based; conditions: reference strain; read-out: MIC ATCC19977 M. abcessus
In short: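 MIC values were determined by broth microdilution following the CLSI standard method for dilution susceptibility testing of aerobically growing bacteria.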

N. gonorrhoeae = assay: Disk diffusion N. gonorrhoeae; format: cell-based

CNC1C(OC2OC(CO)C(N)C(O)C2O)OC2CC(N)C(OC3C(N)CC(N)C(O)C3OC3OC(CN)C(OCCN)C3O)OC2C1O [DC185, 5-O-β-[5-Amino-3-O-(2-aminoethyl)-5-deoxy-D-ribofuranosyl] apramycin]
MIC [1]: > 32 µg/mL
MIC [2]: 1 µg/mL (≈ 1.4 µM)
MIC [3]: 1 µg/mL (≈ 1.4 µM)
MIC [4]: 0.25 µg/mL (≈ 0.35 µM)
MIC [5]: 2 µg/mL (≈ 2.8 µM)
IC50 (bacterial ribosomes): 0.03 µM
IC50 [6]: 34 µM
IC50 [7]: 26 µM
MIC [8]: 2 µg/mL
MIC [9]: 0.5 to 1 µg/mL
MIC [10]: 1 µg/mL
MIC [11]: 1 to 2 µg/mL
MIC [12]: 2 µg/mL
Antibacterial activity AG001 E. coli WT (AG001 E. coli WT): 2
Antibacterial activity AG055 E. coli WT (AG055 E. coli WT): 2
Antibacterial activity AG003 E. coli AAC(3)-II (AG003 E. coli AAC(3)-II): 1-2
Antibacterial activity AG173 E. coli AAC(3)-IV (AG173 E. coli AAC(3)-IV): 4
Antibacterial activity AG163 E. coli APH(3′)-I (AG163 E. coli APH(3′)-I): 2
Antibacterial activity AG038 MRSA (AG038 MRSA): 1
Antibacterial activity AG039 MRSA AAC(6′)-I ANT(4′)-I [13]: 1
Antibacterial activity AG042 MRSA AAC(6′)-I ANT(4′)-I APH(2′) [14]: 1
Antibacterial activity AG031 P. aer. APH(3′)-II (AG031 P. aer. APH(3′)-II): 2
Antibacterial activity AG032 P. aer. APH(3′)-II (AG032 P. aer. APH(3′)-II): 2
Antibacterial activity AG033 P. aer. APH(3′)-II AAC(6′)-I [15]: 2
Activity E. coli pH430 WT [16]: 1
Activity E. coli AG103 armA [17]: 0.5-1
Activity E. coli pH424 armA [18]: 2
Activity E. coli pH425 rmtB [19]: 2
Activity E. coli pH426 rmtC [20]: 2
Activity E. coli pH427 rmtF [21]: 2
Activity E. coli AG153 AAC(3)-II APH(3′)-II rmtB [22]: 4
Activity K. pneum. AG269 AAC(3)-II AAC(6′)-I rmtB [23]: 1
Activity Enterob. AG302 AAC(3)-II AAC(6′)-I rmtC [24]: 1
Activity A baum. AG227 APH(3′)-I armA [25]: 2
antibacterial potency [26]: increased antibacterial potency

CNC1C(O[C@H]2OC(CO)[C@@H](N)C(O)C2O)O[C@H]2CC(N)[C@@H](O[C@@H]3C(N)C[C@@H](N)C(O)C3O)OC2C1O (stereo partly drawn) [apramycin]
MIC (WT clinical isolates): 2 to 4 µg/mL (≈ 3.71 to 7.41 µM)
MIC [1]: > 128 µg/mL
MIC [2]: 1 to 2 µg/mL (≈ 1.85 to 3.71 µM)
MIC [4]: 1 µg/mL (≈ 1.85 µM)
MIC [5]: 4 µg/mL (≈ 7.41 µM)
MIC (isolates carrying apmA): 64 µg/mL (≈ 119 µM)
IC50 (bacterial ribosomes): 0.08 µM
IC50 [6]: 68 µM
IC50 [7]: 71 µM
MIC [8]: 4 µg/mL
MIC [9]: 2 µg/mL
MIC [10]: 4 µg/mL
MIC [11]: 4 µg/mL
MIC [12]: 4 µg/mL
MIC (ATCC19977 M. abcessus): 2 µg/mL (≈ 3.71 µM)
Disk diffusion 25 nmol N. gonorrhoeae (N. gonorrhoeae): <8 mm
Antibacterial activity AG001 E. coli WT (AG001 E. coli WT): 8-16
Antibacterial activity AG055 E. coli WT (AG055 E. coli WT): 8
Antibacterial activity AG003 E. coli AAC(3)-II (AG003 E. coli AAC(3)-II): 8
Antibacterial activity AG173 E. coli AAC(3)-IV (AG173 E. coli AAC(3)-IV): ≥128
Antibacterial activity AG163 E. coli APH(3′)-I (AG163 E. coli APH(3′)-I): 4
Antibacterial activity AG038 MRSA (AG038 MRSA): 4-8
Antibacterial activity AG039 MRSA AAC(6′)-I ANT(4′)-I [13]: 8
Antibacterial activity AG042 MRSA AAC(6′)-I ANT(4′)-I APH(2′) [14]: 8
Antibacterial activity AG031 P. aer. APH(3′)-II (AG031 P. aer. APH(3′)-II): 8-16
Antibacterial activity AG032 P. aer. APH(3′)-II (AG032 P. aer. APH(3′)-II): 8
Antibacterial activity AG033 P. aer. APH(3′)-II AAC(6′)-I [15]: 16-32
Activity E. coli pH430 WT [16]: 2-4
Activity E. coli AG103 armA [17]: 1-2
Activity E. coli pH424 armA [18]: 2-4
Activity E. coli pH425 rmtB [19]: 4
Activity E. coli pH426 rmtC [20]: 4
Activity E. coli pH427 rmtF [21]: 4
Activity E. coli AG153 AAC(3)-II APH(3′)-II rmtB [22]: 8
Activity K. pneum. AG269 AAC(3)-II AAC(6′)-I rmtB [23]: 2
Activity Enterob. AG302 AAC(3)-II AAC(6′)-I rmtC [24]: 4
Activity A baum. AG227 APH(3′)-I armA [25]: 2

Source: patent publication US11485751B2, “Apramycin derivatives” (WAYNE STATE UNIVERSITY, priority 2017, dated 2022)
